# Results taken from article PMC5980230, “Mucosal absorption of therapeutic peptides by harnessing the endogenous sorting of glycosphingolipids” (eLife, 2018).
# Values joined by “and” are separate entries in the source; they are usually repeats but may differ in a detail not shown here. Equal entries are not always repeated.
# Experiments:
# [1] = Intraperitoneal glucose tolerance test; format: in vivo; set-up: unit not given here; conditions: IP injected, individual mice, not corrected
# Source text: To test for absorption and biologic incretin activity in vivo, we gastrically gavaged equal doses (10 nmol/kg) of the C6:0-GM1-GLP-1 fusion, the unfused GLP-1 peptide (GLP-1 oral), or vehicle into wild-type mice and measured effects on glucose metabolism by glucose tolerance test (Figure 5C). […] The effect on glucose tolerance by gastrically administered C6:0-GM1-GLP-1 was similar to the effect achieved by the intraperitoneal injection of GLP-1 peptide alone, implicating an equally high level of bioavailability for the gastrically-delivered GM1-fusion molecule (Figure 5D).
# For intraperitoneal glucose tolerance tests, a 10 nmol/kg dose was used to gavage overnight-fasted WT C57/BL/6 mice (male 7–9 weeks old) with GM1-GLP-1 fusion molecules or unfused GLP-1. Glucose measurements following i.p administration of 2 mg/g glucose solution were obtained from tail vein blood applied directly to glucose strips as in ([te Welscher et al., 2014]).
# [2] = GLP-1 in blood by streptavidin capture and luciferase bioassay; format: in vivo; conditions: individual mice, Ex 3 excluded from Figure 5E
# Source text: We confirmed intestinal absorption of the C6:0-GM1-GLP-1 into the systemic circulation in two ways. First, we measured GLP-1 activity in blood samples by streptavidin capture and quantitative luciferase bioassay (Figure 5E). […] In a second approach, we synthesized an all D-amino acid (non-degradable) isomer of GLP-1 coupled to AF488 to allow for direct quantitative measurement of the […] isomer in the blood using the same streptavidin capture assay as described for our reporter peptide (Figure 5A). Again, we find evidence for absorption of the GLP-1 cargo when fused to the C6:0-GM1 transport vehicle, but no absorption for the unfused GLP-1 peptide (Figure 5F). These experiments were performed in two different laboratories, using two different animal facilities with the same results. In all assays (Figure 5C–5F), we find the efficiency of intestinal absorption enabled by fusion to C6:0-GM1 was again almost as efficient as for IP injection of the peptide alone, implicating a high level of bioavailability for the GM1-fusion molecules applied by gastric gavage.
# [3] = oral, 15 min after gastric gavage
substance,measurement,setting,value
GLP-1,total area under glucose tolerance curves (AUC),[1],2184 and 5775 and 3223 and 5783 and 10013 and 10613 and 14078 and 12630 and 14685 and 4613 and 1628 and 6533 and 2735 and 13695 and 6728 and 15120 and 10928 and 9270 and 7061 and 9383 and 7166 and 10043 and 10253
same,"GLP-1 in blood, corrected for vehicle",[2]; IP-injected,6.787 fmols per 100uls blood and 7.191 fmols per 100uls blood and 4.472 fmols per 100uls blood and 6.8463 fmols per 100uls blood and 3.406 fmols per 100uls blood and 4.493 fmols per 100uls blood and 6.695 fmols per 100uls blood and 7.88 fmols per 100uls blood and 13.0711 fmols per 100uls blood and 7.126 fmols per 100uls blood
same,"GLP-1 in blood, raw data not corrected for vehicle",[2]; IP-injected,8.132 fmols in 100 uls blood and 10.5063 fmols in 100 uls blood and 7.066 fmols in 100 uls blood and 8.153 fmols in 100 uls blood and 6.729 fmols in 100 uls blood and 7.914 fmols in 100 uls blood and 21.2711 fmols in 100 uls blood and 15.3265 fmols in 100 uls blood and 7.237 fmols in 100 uls blood and 7.641 fmols in 100 uls blood
same,"GLP-1 in blood, corrected for vehicle",[2]; [3],0.3766 fmols per 100uls blood and 0.3584 fmols per 100uls blood and 0.3383 fmols per 100uls blood and 0.4572 fmols per 100uls blood and -1.003 fmols per 100uls blood and -1.627 fmols per 100uls blood and 2.205 fmols per 100uls blood and 0.253 fmols per 100uls blood and 1.235 fmols per 100uls blood and 0.303 fmols per 100uls blood and -0.01924 fmols per 100uls blood and 0.2681 fmols per 100uls blood and -0.002238 fmols per 100uls blood and -1.223 fmols per 100uls blood and 0.4322 fmols per 100uls blood and -3.718 fmols per 100uls blood
same,"GLP-1 in blood, raw data not corrected for vehicle",[2]; [3],2.657 fmols in 100 uls blood and 2.033 fmols in 100 uls blood and 5.865 fmols in 100 uls blood and 3.913 fmols in 100 uls blood and 4.895 fmols in 100 uls blood and 3.963 fmols in 100 uls blood and 0.01476 fmols in 100 uls blood and 0.3021 fmols in 100 uls blood and 0.03176 fmols in 100 uls blood and 6.977 fmols in 100 uls blood and 8.632 fmols in 100 uls blood and 4.482 fmols in 100 uls blood and 0.8266 fmols in 100 uls blood and 0.8084 fmols in 100 uls blood and 0.7883 fmols in 100 uls blood and 0.9072 fmols in 100 uls blood
